According to patent US20110250136A1, “FLUORINATED BENZOTHIAZOLE DERIVATIVES, PREPARATION METHOD THEREOF AND IMAGING AGENT FOR DIAGNOSING ALTZHEIMER'S DISEASE USING THE SAME” (SNU R&DB FOUNDATION, priority 2008, published 2011):
Where “and” joins values, the source holds several entries; their conditions need not be identical. Equal values may be shown once.

Columns and labels:
Aβ1-40 fibrils [1] = biological target: T1, Aβ1-40 fibrils (Homo sapiens, UniProt P05067); details: radioactive ligand, known value, first Aβ1-40; cited from earlier work
T1 construct: beta-amyloid plaque peptides (Aβ1-40 and Aβ1-42)
T1 sequence (P05067 672-711 limits assumed): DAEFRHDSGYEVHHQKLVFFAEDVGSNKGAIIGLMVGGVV

Aβ1-42 fibrils [2] = biological target: T2, Aβ1-42 fibrils (Homo sapiens, UniProt P05067); details: radioactive ligand, known value, printed as second Aβ1-40; read-out: Kd for Aβ1-40 (second named); cited from earlier work
T2 construct: beta-amyloid plaque peptides (Aβ1-40 and Aβ1-42)
T2 sequence (P05067 672-713 limits assumed): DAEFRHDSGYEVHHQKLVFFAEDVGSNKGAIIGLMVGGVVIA

[3] = Measurement of partition coefficient (1-octanol / PBS buffer, gamma counter); format: physicochemical; details: 1-octanol / 1 M PBS buffer, room temperature; read-out: Log P value
Procedure: For this purpose, the distribution ratio of octanol to water buffer of the compound to be measured may be measured to determine the relative lipophilicity of each compound. […] The mixture was vortexed at room temperature for 5 minutes and then was centrifuged at 1000 rpm for 5 minutes. 4 ml was withdrawn from the octanol layer of the solution, introduced into a new tube, and another 4 ml of 1 M PBS buffer was introduced into the tube. The mixture was vortexed at room temperature for 5 minutes and then centrifuged at 1000 rpm for 5 minutes. 50 μl was withdrawn from the octanol layer and introduced into a test tube, and 500 μl was withdrawn from the 1 M PBS buffer and introduced into the test tube. 3 ml was withdrawn from the octanol layer and introduced into another test tube, and another 3 ml of 1 M PBS buffer was added into the test tube. The mixture was vortexed at room temperature for 5 minutes and then centrifuged at 1000 rpm for 5 minutes. 50 μl was withdrawn from the octanol layer and introduced into a test tube, and 500 μl was withdrawn from the 1 M PBS buffer and introduced into the test tube. 2 ml was withdrawn from the octanol layer and introduced into another test tube, and another 2 ml of the PBS buffer. The mixture was vortexed at room temperature for 5 minutes and then centrifuged at 1000 rpm for 5 minutes. […]

[4] = In vivo cerebral uptake and release degree in a normal mouse; design: species or system ICR mice; details: for % ID-kg/g: corrected for body weight; for % ID/g: tail vein injection, normal mouse; for release from normal mouse brain (in words): up to 60 min
Procedure: 6 week-old ICR mice were used for experiments on cerebral uptake and release degree of three 6-[18F]fluorine-2-allylbenzothiazole derivatives (compounds in Examples 1 to 3) in a mouse over time. Each of the compounds in Examples 1 to 3 was dissolved in physiological saline solution containing 5% ethanol, and each of 200 μl (100 μCi) of the solutions was injected through the tail vein of the mouse. 2, 30, and 60 minutes were selected as in-vivo retention time periods, and 4 to 7 mice were used in each time period. After the mice were sacrificed by cervical dislocation in each time period, the brains were quickly removed, they were separated into three parts of cortex, cerebellum, and remnant on filter paper kept on ice, respectively, and blood was collected. The specimen thus-obtained was introduced into a glass tube, the weight was determined, and the radioactivity were measured using a gamma counter. Using the data obtained, the percent injected dose per gram of tissue (% ID/g) in each sample compared to radioactivity actually injected, and the value (% ID-kg/g) corrected for individual body weights of the mice used were calculated.

[5] = Brain imaging (PET) of normal volunteer, brain region to cerebellar ratio; format: in vivo, human; details: 196 MBq i.v.; for brain region to cerebellar ratio, Cinerea / brain region to cerebellar ratio, Frontal cortex / brain region to cerebellar ratio, Occipital cortex / brain region to cerebellar ratio, posterior cingulate cortex: PET; for brain region to cerebellar ratio, Cerebell: PET (reference region)
Procedure: Each of the compounds (196 MBq) in Examples 2 and 3 of the present invention was dissolved in 6 ml of physiological saline solution including 5% ethanol, the resulting solution was intravenously injected into a normal volunteer (78 kg), and Static Images of the brain from the injection to 2 hours were obtained through a Phillips Allegro PET scanner. The protocol of the brain imaging repeated emission and transmission as follows.
[2 minute emission+transmission]×four times
[5 minute emission+transmission]×four times
[10 minute emission+transmission]×three times
For attenuation correction, a Cs-137 radiation source prior to the administration was used to obtain a one-and-a half minute transmission scan per bed (18 cm). The transmission image and a 3D Row-Action Maximum-Likelihood (RAMLA) algorithm were used to reconstruct an attenuation corrected image. The 3D voxel size was 2.0×2.0×2.0 mm and the matrix size was 128×128×90 (FIGS. 2 and 3).

Aβ1-40 fibrils [6] = biological target: T1, Aβ1-40 fibrils; experiment: Binding affinity to beta-amyloid fibrils, competition with [125I]TZDM; details: [125I]TZDM radioligand
Procedure: (§1) A fibril solution, in which 1 mg of each of beta-amyloid plaque peptides (Aβ1-40 and Aβ1-42) to be used for analysis was dissolved in 1.155 ml of ethylenediaminetetraacetic acid disodium salt (Na2EDTA) solution, was introduced into 20 mM PBS buffer (pH 7.4), a sonication was performed for 30 minutes, and then the mixture was incubated with stirring for 3 days at 30° C. The thus-obtained solution was high speed centrifuged (28,000 g for 15 minutes) at 4° C., and the supernatant was collected. The precipitate was washed twice with 100 μl of a mixture solution of 1 mM ethylenediaminetetraacetic acid disodium salt and 10 mM PBS buffer. The precipitate was resuspended in 2.310 ml of 1 mM ethylenediaminetetraacetic acid disodium salt and 10 mM PBS buffer, and the suspended sold produced was divided into equal aliquots of 30 μl and kept at −80° C. […] A mixed solution with a total volume of 1000 μl was incubated at room temperature for 3 hours, and then a Whatman GF/B filter was used to separate the solution into unbound radioactive materials and bound radioactive materials. Then, each tube was washed three times with 3 μl of 10% ethanol. The radioactivity was measured using an automatic gamma counter.

Aβ1-42 fibrils [7] = biological target: T2, Aβ1-42 fibrils; experiment: as above; details: [125I]TZDM radioligand
Procedure: as §1

CNc1ccc(-c2nc3ccccc3s2)cc1I [2-(3-[125I]iodo-4′-N-methylaminophenyl)benzothiazole]
Kd (Aβ1-40 fibrils [1]): 2.3 ± 0.33 nM
Kd (Aβ1-42 fibrils [2]): 0.44 ± 0.25 nM

CNc1ccc(-c2nc3ccc([18F])cc3s2)cc1 [Example 2, 2-(4′-N-Methylaminophenyl)-6-[^18F]fluorobenzothiazole]
logP [3]: 3.11
% ID-kg/g ([4]; Blood, 2 min): 0.070 ± 0.007 % ID-kg/g
% ID/g ([4]; Blood, 2 min): 2.08 ± 0.19 % ID/g
% ID-kg/g ([4]; Blood, 30 min): 0.032 ± 0.007 % ID-kg/g
% ID/g ([4]; Blood, 30 min): 0.92 ± 0.15 % ID/g
% ID-kg/g ([4]; Blood, 60 min): 0.042 ± 0.006 % ID-kg/g
% ID/g ([4]; Blood, 60 min): 1.28 ± 0.08 % ID/g
% ID-kg/g ([4]; Cerebellum, 2 min): 0.210 ± 0.017 % ID-kg/g
% ID/g ([4]; Cerebellum, 2 min): 6.24 ± 0.35 % ID/g
% ID-kg/g ([4]; Cerebellum, 30 min): 0.048 ± 0.011 % ID-kg/g
% ID/g ([4]; Cerebellum, 30 min): 1.38 ± 0.23 % ID/g
% ID-kg/g ([4]; Cerebellum, 60 min): 0.032 ± 0.003 % ID-kg/g
% ID/g ([4]; Cerebellum, 60 min): 0.98 ± 0.12 % ID/g
% ID-kg/g ([4]; Cortex, 2 min): 0.222 ± 0.015 % ID-kg/g
% ID/g ([4]; Cortex, 2 min): 6.62±0.33 % ID/g
% ID-kg/g ([4]; Cortex, 30 min): 0.042 ± 0.010 % ID-kg/g
% ID/g ([4]; Cortex, 30 min): 1.20 ± 0.20 % ID/g
% ID-kg/g ([4]; Cortex, 60 min): 0.024 ± 0.002 % ID-kg/g
% ID/g ([4]; Cortex, 60 min): 0.73±0.09 % ID/g and 0.73 ± 0.10 % ID/g
% ID-kg/g ([4]; Remnant (brain), 2 min): 0.212 ± 0.017 % ID-kg/g
% ID/g ([4]; Remnant (brain), 2 min): 6.30 ± 0.46 % ID/g
% ID-kg/g ([4]; Remnant (brain), 30 min): 0.066 ± 0.014 % ID-kg/g
% ID/g ([4]; Remnant (brain), 30 min): 1.91 ± 0.30 % ID/g
% ID-kg/g ([4]; Remnant (brain), 60 min): 0.044 ± 0.003 % ID-kg/g
% ID/g ([4]; Remnant (brain), 60 min): 1.32 ± 0.15 % ID/g
release from normal mouse brain (in words) ([4]; normal mouse brain): very quickly released
brain region to cerebellar ratio, Cinerea ([5]; 15 min): 0.45
brain region to cerebellar ratio, Frontal cortex ([5]; 15 min): 0.92
brain region to cerebellar ratio, Occipital cortex ([5]; 15 min): 1.05
brain region to cerebellar ratio, posterior cingulate cortex ([5]; 15 min): 0.89
brain region to cerebellar ratio, Cerebell ([5]; 15 min): 1.00
brain region to cerebellar ratio, Cinerea ([5]; 90 min): 0.83
brain region to cerebellar ratio, Frontal cortex ([5]; 90 min): 0.96
brain region to cerebellar ratio, Occipital cortex ([5]; 90 min): 0.95
brain region to cerebellar ratio, posterior cingulate cortex ([5]; 90 min): 0.87
brain region to cerebellar ratio, Cerebell ([5]; 90 min): 1.00

CN(C)c1ccc(-c2nc3ccc(F)cc3s2)cc1 [Example 6, 2-(4′-Dimethylaminophenyl)-6-fluorobenzothiazole]
Ki (Aβ1-40 fibrils [6]): 7.9 nM
Ki (Aβ1-42 fibrils [7]): 1.86 nM
melting point: 204.4 to 205.9 °C

CNc1ccc(-c2nc3ccc(F)cc3s2)cc1 [Example 5, 2-(4′-N-methylaminophenyl)-6-fluorobenzothiazole]
Ki (Aβ1-40 fibrils [6]): 13.3 nM
Ki (Aβ1-42 fibrils [7]): 7.55 nM
melting point: 153.5 to 154.5 °C

CN(C)c1ccc(-c2nc3ccc([18F])cc3s2)cc1 [Example 3, 2-(4′-N-Dimethylaminophenyl)-6-[^18F]fluorobenzothiazole]
logP [3]: 4.33
% ID-kg/g ([4]; Blood, 2 min): 0.040 ± 0.003 % ID-kg/g
% ID/g ([4]; Blood, 2 min): 1.55 ± 0.08 % ID/g
% ID-kg/g ([4]; Blood, 30 min): 0.026 ± 0.005 % ID-kg/g
% ID/g ([4]; Blood, 30 min): 1.04 ± 0.19 % ID/g
% ID-kg/g ([4]; Blood, 60 min): 0.021 ± 0.010 % ID-kg/g
% ID/g ([4]; Blood, 60 min): 1.02 ± 0.06 % ID/g
% ID-kg/g ([4]; Cerebellum, 2 min): 0.115 ± 0.005 % ID-kg/g
% ID/g ([4]; Cerebellum, 2 min): 4.45 ± 0.19 % ID/g
% ID-kg/g ([4]; Cerebellum, 30 min): 0.050 ± 0.007 % ID-kg/g
% ID/g ([4]; Cerebellum, 30 min): 2.03 ± 0.26 % ID/g
% ID-kg/g ([4]; Cerebellum, 60 min): 0.024 ± 0.012 % ID-kg/g
% ID/g ([4]; Cerebellum, 60 min): 1.16 ± 0.09 % ID/g
% ID-kg/g ([4]; Cortex, 2 min): 0.114 ± 0.004 % ID-kg/g
% ID/g ([4]; Cortex, 2 min): 4.39 ± 0.22 % ID/g
% ID-kg/g ([4]; Cortex, 30 min): 0.054 ± 0.006 % ID-kg/g
% ID/g ([4]; Cortex, 30 min): 2.17 ± 0.26 % ID/g
% ID-kg/g ([4]; Cortex, 60 min): 0.033 ± 0.017 % ID-kg/g
% ID/g ([4]; Cortex, 60 min): 1.61 ± 0.22 % ID/g
% ID-kg/g ([4]; Remnant (brain), 2 min): 0.110 ± 0.006 % ID-kg/g
% ID/g ([4]; Remnant (brain), 2 min): 4.26 ± 0.22 % ID/g
% ID-kg/g ([4]; Remnant (brain), 30 min): 0.069 ± 0.010 % ID-kg/g
% ID/g ([4]; Remnant (brain), 30 min): 2.80 ± 0.39 % ID/g
% ID-kg/g ([4]; Remnant (brain), 60 min): 0.041 ± 0.020 % ID-kg/g
% ID/g ([4]; Remnant (brain), 60 min): 2.01 ± 0.15 % ID/g
initial cerebral uptake (in words) ([4]; normal mouse brain, 2 min): relatively lower initial cerebral uptake
release from normal mouse brain (in words) ([4]; normal mouse brain): slower 60-minute removal rate
brain region to cerebellar ratio, Cinerea ([5]; 15 min): 0.40
brain region to cerebellar ratio, Frontal cortex ([5]; 15 min): 0.88
brain region to cerebellar ratio, Occipital cortex ([5]; 15 min): 1.17
brain region to cerebellar ratio, posterior cingulate cortex ([5]; 15 min): 0.91
brain region to cerebellar ratio, Cerebell ([5]; 15 min): 1.00
brain region to cerebellar ratio, Cinerea ([5]; 90 min): 0.83
brain region to cerebellar ratio, Frontal cortex ([5]; 90 min): 1.02
brain region to cerebellar ratio, Occipital cortex ([5]; 90 min): 1.12
brain region to cerebellar ratio, posterior cingulate cortex ([5]; 90 min): 1.00
brain region to cerebellar ratio, Cerebell ([5]; 90 min): 1.00
